# Experiments:
# [1] = molecular target: T1, cholesterol ester transfer protein (CETP) (Homo sapiens, UniProt P11597); experiment: CETP inhibition testing (transfer of 3H-cholesterol ester from HDL to biotinylated LDL); format: biochemical; settings: substance concentration at which transfer is reduced by half; 18 h at 37° C.
# T1 construct: CETP is obtained from human plasma in partially purified form; from tissue; host or cells: human plasma (partially purified by centrifugation, phenyl-Sepharose, CM-Sepharose, Mono Q)
# T1 sequence (P11597 18-493): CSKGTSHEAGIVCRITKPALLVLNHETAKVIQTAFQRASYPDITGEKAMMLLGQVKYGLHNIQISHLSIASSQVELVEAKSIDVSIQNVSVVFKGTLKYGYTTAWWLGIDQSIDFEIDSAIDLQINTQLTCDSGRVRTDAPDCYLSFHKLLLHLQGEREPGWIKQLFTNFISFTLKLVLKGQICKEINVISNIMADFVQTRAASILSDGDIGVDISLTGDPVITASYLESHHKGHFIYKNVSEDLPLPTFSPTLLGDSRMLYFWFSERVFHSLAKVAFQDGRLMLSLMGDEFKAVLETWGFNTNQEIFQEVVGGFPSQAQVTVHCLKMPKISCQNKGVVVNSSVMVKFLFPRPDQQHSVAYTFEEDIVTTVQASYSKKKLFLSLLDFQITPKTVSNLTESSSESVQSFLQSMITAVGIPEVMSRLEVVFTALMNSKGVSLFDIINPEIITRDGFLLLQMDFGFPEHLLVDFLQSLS
# Method: CETP is obtained from human plasma in partially purified form by differential centrifugation and column chromatography and used for the test. To this end, human plasma is adjusted to a density of 1.21 g per ml using NaBr and centrifuged at 4° C. for 18 h at 50,000 rpm. The bottom fraction (d>1.21 g/ml) is applied to a Sephadex®phenyl-sepharose 4B (Pharmacia) column, washed with 0.15 M NaCl/0.001 M trisHCl pH 7.4 and then eluted with distilled water. The CETP-active fractions are pooled, dialysed against 50 mM Na acetate pH 4.5 and applied to a CM-Sepharose® (Pharmacia) column. The column is then eluted using a linear gradient (0-1 M NaCl). The pooled CETP fractions are dialysed against 10 mM tris HCl pH 7.4 and then further purified by chromatography on a Mono Q® column (Pharmacia).
# Obtainment of radiolabelled HDL
# 50 ml of fresh human EDTA plasma are adjusted to a density of 1.12 using NaBr and centrifuged at 50,000 rpm for 18 h at 4° C. in a Ty 65 rotor. The upper phase is used to obtain cold LDL. The lower phase is dialysed against 3×4 l of PDB buffer (10 mM tris/HCl pH 7.4, […], 1 mM EDTA, 0.02% NaN3). 20 μl of ^3 H-cholesterol (Dupont NET-725; 1 μC/μl dissolved in ethanol!) are then added per 10 ml of retentate volume and the mixture is incubated under N2 at 37° C. for 72 h. […]
# To test the CETP activity, the transfer of ^3 H-cholesterol ester from human HD lipoproteins to biotinylated LD lipoproteins is measured.
# The reaction is ended by addition of streptavidin-SPA®beads (Amersham) and the transferred radioactivity is determined directly in a liquid scintillation counter.
# In the test mixture, 10 μl of HDL-^3 H-cholesterol ester (~50,000 cpm) are incubated at 37° C. for 18 h with 10 μl of biotin-LDL (Amersham) in 50 mM Hepes/0.15 M NaCl/0.1% bovine serum albumin/0.05% NaN3 pH 7.4 with 10 μl of CETP (1 mg/ml) and 3 μl of solution of the substance to be tested (dissolved in 10% DMSO/1% RSA). 200 μl of the SPA-streptavidin bead solution (TRKQ 7005) are then added, the mixture is incubated further for 1 h with shaking and then measured in the scintillation counter. […]
# transgenic hCETP mice = experiment: In vivo activity in transgenic hCETP mice; settings: 100 ppm in the feed; one week
# Method: In Vivo Activity in Transgenic hCETP Mice
# Transgenic mice from in-house breeding (Dinchuck, Hart, Gonzalez, Karmann, Schmidt, Wirak; BBA (1995), 1295, 301) were administered the substances to be tested in the feed. Before the start of the experiment, blood was taken retro-orbitally from the mice in order to determine cholesterol and triglycerides in the serum. The serum was obtained as described above for hamsters by incubation at 4° C. overnight and subsequent centrifugation at 6000×g. After one week, blood was again taken from the mice in order to determine lipoproteins and triglycerides. The change in the parameters measured is expressed as a percentage change compared with the starting value.
# CETP = experiment: Ex vivo activity: CETP activity in serum of treated hamsters; design: species or system Syrian golden hamsters; settings: hamster serum; for ED50 (ex vivo activity): up to 24 hours after administration
# Method: Ex Vivo Activity of the Compounds According to the Invention
# Syrian golden hamsters from in-house breeding are anaesthetized after fasting for 24 hours (0.8 mg/kg of atropine, 0.8 mg/kg of Ketavet® s.c., 30' later 50 mg/kg of Nembutal i.p.). The jugular vein is then exposed and cannulated. The test substance is dissolved in a suitable solvent (as a rule Adalat placebo solution: 60 g of glycerol, 100 ml of H2 O, PEG-400 to 1000 ml) and administered to the animals via a PE catheter inserted in the jugular vein. The control animals receive the same volume of solvent without test substance. The vein is then tied off and the wound is closed. The administration of the test substances can also be carried out p.o., by orally administering the substances dissolved in DMSO and suspended in 0.5% Tylose by means of a stomach tube. The control animals receive identical volumes of solvent without test substance.
# After various times--up to 24 hours after administration--blood (about 250 μl) is taken from the animals by puncture of the retro-orbital venous plexus. Clotting is ended by incubation at 4° C. overnight, then centrifugation is carried out at 6000×g for 10 minutes. In the serum thus obtained, CETP activity is determined by the modified CETP test. As for the CETP test described above, the transfer of ^3 H-cholesterol ester from HD lipoproteins to biotinylated LD lipoproteins is measured.
# The reaction is ended by addition of Streptavidin-SPA® beads (Amersham) and the transferred radioactivity is determined directly in the liquid scintillation counter.
# The test mixture is carried out as described under "CETP test". For the testing of the serum, only 10 μl of CETP are replaced by 10 μl of the corresponding serum samples. As controls, corresponding incubations with sera of untreated animals are used.
# The activity transferred in the control mixtures with control sera is rated as 100% transfer. The substance concentration at which this transfer is reduced to a half is indicated as the ED50 value.
# HDL cholesterol = experiment: In vivo activity: oral action on lipoproteins (HDL rise) in hamsters; design: species or system Syrian golden hamsters; settings: Dose 2 × 10 mg/kg, hamster, up to 24 hours
# Method: In Vivo Activity of the Compounds According to the Invention
# In experiments to determine the oral action on lipoproteins and triglycerides, test substance dissolved in DMSO and 0.5% Tylose suspended by means of a stomach tube are administered orally to Syrian golden hamsters from in-house breeding. To determine the CETP activity, blood (about 250 μl) is taken by retro-orbital puncture before the start of the experiment. The test substances are then administered orally by means of a stomach tube. The control animals receive identical volumes of solvents without test substance. The feed is then withdrawn from the animals and blood is taken at various times--up to 24 hours after substance administration--by puncture of the retro-orbital venous plexus.
# Clotting is ended by incubation at 4° C. overnight, then centrifugation at 6000×g is carried out for 10 minutes. In the serum thus obtained, the content of cholesterol and triglycerides is determined with the aid of modified commercially available enzyme tests (cholesterol enzymatic 14366 Merck, triglycerides 14364 Merck). Serum is suitably diluted using physiological saline solution.
# 100 μl of serum dilution are mixed with 100 μl of […] in 96-hole plates and incubated at room temperature for 10 minutes. The optical density is then determined at a wavelength of 492 nm using an automatic plate-reading apparatus. The triglyceride or cholesterol concentration contained in the samples is determined with the aid of a standard curve measured in parallel.
# The determination of the content of HDL cholesterol is carried out according to the manufacturer's instructions after precipitation of the ApoB-containing lipoproteins by means of a reagent mixture (Sigma 352-4 HDL cholesterol reagent).
smiles,measurement,setting,value
CC(C)c1nc2c(c(-c3ccc(F)cc3)c1C(F)c1ccc(C(F)(F)F)cc1)C(O)c1ccccc1-2 (stereo not drawn) [Example 14],IC50,[1],60 nM
same,HDL (percentage change compared with the starting value),transgenic hCETP mice,22.0%
same,LDL (percentage change compared with the starting value),transgenic hCETP mice,-10.5%
same,Triglyceride (percentage change compared with the starting value),transgenic hCETP mice,-9.7%
same,% Inhibition at 10 mg/kg,CETP,64.0%
same,ED50 (ex vivo activity),CETP,< 10 mg/kg
OC1c2ccccc2-c2nc(C3CCCC3)c(C(F)c3ccc(C(F)(F)F)cc3)c(-c3ccc(F)cc3)c21 (stereo not drawn) [Example 18],% HDL rise,HDL cholesterol,3.3%
O=C(c1ccc(C(F)(F)F)cc1)c1c(C2CCCC2)nc2c(c1-c1ccc(F)cc1)C(O)c1ccccc1-2 (stereo not drawn) [Example 19],% HDL rise,HDL cholesterol,17.1%
same,% Inhibition at 10 mg/kg,CETP,46.0%
same,ED50 (ex vivo activity),CETP,> 10 mg/kg
OC1c2ccccc2-c2nc(C3CCCC3)c(Cc3ccc(C(F)(F)F)cc3)c(-c3ccc(F)cc3)c21 (stereo not drawn) [Example 20],% HDL rise,HDL cholesterol,11.14%
OC(c1ccc(Cl)c(C(F)(F)F)c1)c1c(C2CCCC2)nc2c(c1-c1ccc(F)cc1)C(O)c1ccccc1-2 (stereo not drawn) [Example 22],IC50,[1],240 nM
CC(C)c1nc2c(c(-c3ccc(F)cc3)c1C(F)c1ccc(C(F)(F)F)cc1)C(O)c1cc(Cl)c(Cl)cc1-2 (stereo not drawn) [Example 27],IC50,[1],300 nM
O=C1c2cccc(F)c2-c2nc(C3CCCC3)c(C(F)c3ccc(C(F)(F)F)cc3)c(-c3ccc(F)cc3)c21 (stereo not drawn) [Example 29],% Inhibition at 10 mg/kg,CETP,17.2%
same,ED50 (ex vivo activity),CETP,> 10 mg/kg
